Molecular target: NADH-dependent nitrate reductase ([Candida] boidinii, UniProt A0ACB5TRL5)
Sequence (A0ACB5TRL5 entry or part of it): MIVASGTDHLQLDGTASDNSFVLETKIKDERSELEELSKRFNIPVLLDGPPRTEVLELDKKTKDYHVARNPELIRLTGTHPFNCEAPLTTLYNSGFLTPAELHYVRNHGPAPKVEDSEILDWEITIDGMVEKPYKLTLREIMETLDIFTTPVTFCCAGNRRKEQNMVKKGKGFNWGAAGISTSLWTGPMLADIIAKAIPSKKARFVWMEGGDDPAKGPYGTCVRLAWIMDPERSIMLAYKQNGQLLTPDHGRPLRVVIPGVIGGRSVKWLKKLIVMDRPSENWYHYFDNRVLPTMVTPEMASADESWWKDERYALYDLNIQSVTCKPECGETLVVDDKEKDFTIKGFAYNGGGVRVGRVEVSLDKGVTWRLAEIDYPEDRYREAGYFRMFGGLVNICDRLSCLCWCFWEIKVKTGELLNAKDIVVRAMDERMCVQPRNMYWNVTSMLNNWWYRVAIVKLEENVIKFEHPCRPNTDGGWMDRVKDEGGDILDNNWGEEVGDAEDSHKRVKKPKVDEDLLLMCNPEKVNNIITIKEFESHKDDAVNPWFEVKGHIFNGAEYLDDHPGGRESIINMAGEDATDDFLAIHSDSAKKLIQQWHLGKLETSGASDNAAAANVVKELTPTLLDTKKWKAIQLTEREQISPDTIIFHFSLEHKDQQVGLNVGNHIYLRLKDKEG

In the case of `O=NO` [nitrite], the End-product inhibition is reported as “up to 50%”.

From patent US5294539A, “Nitrate reductase from yeasts, the preparation and use thereof” (Merck Patent Gesellschaft mit beschrankter Haftung, priority 1990, dated 1994)
